According to PubChem BioAssay (NCI):
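Briefly, cells in 96-well plates were exposed to five compound concentrations for 48 h, and endpoints were estimated by linear interpolation. Here, GI50 denotes the concentration required for 50% inhibition of growth. TGI is the concentration that stops growth completely.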

Columns and labels:
Assay in all cases: growth of human tumour cells (NCI), 48 h
A498 renal = test system: A498 renal
HOP-92 NSCLC = test system: HOP-92 NSCLC
MALME-3M melanoma = test system: MALME-3M melanoma
OVCAR-4 ovarian = test system: OVCAR-4 ovarian
RPMI-8226 leukemia = test system: RPMI-8226 leukemia
SK-MEL-2 melanoma = test system: SK-MEL-2 melanoma
ACHN renal = test system: ACHN renal
UACC-257 melanoma = test system: UACC-257 melanoma
BT-549 breast = test system: BT-549 breast
DU-145 prostate = test system: DU-145 prostate
HS 578T breast = test system: HS 578T breast
RXF 393 renal = test system: RXF 393 renal

SMILES	TGI (A498 renal)	TGI (HOP-92 NSCLC)	TGI (MALME-3M melanoma)	TGI (OVCAR-4 ovarian)	TGI (RPMI-8226 leukemia)	TGI (SK-MEL-2 melanoma)	TGI (ACHN renal)	TGI (UACC-257 melanoma)	TGI (BT-549 breast)	TGI (DU-145 prostate)	TGI (HS 578T breast)	TGI (RXF 393 renal)	GI50 (HS 578T breast)
CC(=O)c1ccc2c(ccc(=O)n2C)c1	> 100 µM	> 100 µM	> 100 µM	> 100 µM	> 100 µM	> 100 µM	–	–	–	–	–	–	–
CS(=O)(=O)c1c(N)c2nc(Cl)cn2c2nc3ccccc3nc12	–	–	> 100 µM	> 100 µM	> 100 µM	> 100 µM	> 100 µM	> 100 µM	–	–	–	–	–
C=C(C)CC1(O)C(=O)C(OCC)=C1OCC (stereo unspecified)	> 100 µM	> 100 µM	> 100 µM	> 100 µM	–	> 100 µM	> 100 µM	> 100 µM	> 100 µM	> 100 µM	> 100 µM	–	–
c1ccc(C2=NOC3(c4ccccc4)SC4CCCCC4CN23)cc1 (stereo unspecified)	> 100 µM	59.4 µM	> 100 µM	> 100 µM	95.4 µM	> 100 µM	70.9 µM	> 100 µM	–	–	–	71.2 µM	–
O=C(Cc1csc(N=Nc2c(O)[nH]c3ccccc23)n1)Nc1ccccc1	> 100 µM	> 100 µM	–	> 100 µM	–	> 100 µM	54.4 µM	87.7 µM	> 100 µM	91.5 µM	–	> 100 µM	–
CCCCc1ccc(Nc2nc(=S)c3[nH]cnc3[nH]2)cc1	31.7 µM	> 100 µM	37 µM	76.4 µM	90.4 µM	52.1 µM	59.2 µM	55.2 µM	39 µM	> 100 µM	49.3 µM	–	–
C#CCN(N=O)C(=O)NC(CCCNC(=O)OCc1ccccc1)C(=O)OCc1ccccc1 (stereo unspecified)	> 100 µM	96.3 µM	> 100 µM	> 100 µM	> 100 µM	> 100 µM	> 100 µM	> 100 µM	–	–	–	84.4 µM	–
Cc1nc(C(N)=S)sc1C(/C=C/c1ccc(Cl)c(Cl)c1)=N/NC(C)(C)C	–	> 100 µM	–	> 100 µM	–	> 100 µM	> 100 µM	> 100 µM	> 100 µM	> 100 µM	> 100 µM	> 100 µM	–
CC(C)(C)NC(=O)NC12CC3CC(CC(F)(C3)C1)C2	> 100 µM	> 100 µM	> 100 µM	–	> 100 µM	> 100 µM	> 100 µM	> 100 µM	–	–	–	> 100 µM	–
C=C(C)C1CC/C(C)=C/CC[C@]2(C)O[C@H]2CC/C(COC(C)=O)=C\[C@@H]1O (stereo partly specified)	> 50 µM	> 50 µM	–	> 50 µM	> 50 µM	> 50 µM	> 50 µM	> 50 µM	> 50 µM	> 50 µM	> 50 µM	> 50 µM	8.27 µM
Cc1ccc(N=N/C(=N/NC(=O)c2cc(Cl)ccc2C(=O)c2ccccc2)c2ccc(N(CCC#N)CCC#N)cc2C)cc1	–	–	32.4 µM	82.4 µM	96.9 µM	28.2 µM	> 100 µM	39.4 µM	> 100 µM	51.8 µM	> 100 µM	7.24 µM	–
COc1cc(C(=O)O[C@@H]2[C@@H](OC(=O)c3cc(OC)c(OC)c(OC)c3)[C@@H](OC)O[C@@H]3CO[C@@H](c4ccccc4)O[C@@H]23)cc(OC)c1OC	> 100 µM	> 100 µM	> 100 µM	> 100 µM	> 100 µM	> 100 µM	> 100 µM	> 100 µM	> 100 µM	> 100 µM	> 100 µM	–	–
Cc1cc(S(=O)(=O)/N=C(\[N-]S(=O)(=O)c2ccc(Cl)cc2)[n+]2ccc(N(C)C)cc2)c(S)cc1Cl	99.2 µM	–	–	> 100 µM	> 100 µM	> 100 µM	> 100 µM	> 100 µM	–	> 100 µM	> 100 µM	> 100 µM	–
CCOC(=O)c1sc(N/N=C2\NC(=O)/C(=C/c3ccc([N+](=O)[O-])cc3)S2)nc1C	58.5 µM	44.6 µM	–	> 100 µM	–	81.3 µM	58.3 µM	42.1 µM	74.5 µM	47.4 µM	> 100 µM	84 µM	–
Clc1ccccc1C1=NN(c2ccccc2)C2c3ccccc3OCC12 (stereo unspecified)	> 100 µM	> 100 µM	> 100 µM	–	> 100 µM	> 100 µM	> 100 µM	> 100 µM	–	–	–	> 100 µM	–
COc1cc(C=C2C(C)=NN(c3cccc(Cl)c3)C23C(Cl)C(=O)N3c2nc3ccccc3s2)ccc1O (stereo unspecified)	35.2 µM	26.1 µM	–	> 100 µM	30.5 µM	36.3 µM	39.1 µM	73.1 µM	–	48.7 µM	43 µM	30.3 µM	–
Cc1nn(C(=O)c2ccncc2)c2c1C(c1ccccc1)SC(N)=N2 (stereo unspecified)	–	> 10 µM	> 10 µM	> 10 µM	> 10 µM	> 10 µM	> 10 µM	> 10 µM	> 10 µM	> 10 µM	> 10 µM	> 10 µM	–
COc1ccc(C2Oc3cc(OC)c(O)c(C)c3[C@H]2C)cc1 (stereo partly specified)	> 100 µM	> 100 µM	> 100 µM	> 100 µM	–	> 100 µM	> 100 µM	> 100 µM	–	–	–	> 100 µM	–
COC(C(=O)C(O)C(C)O)C1CC2C=C3C=C(OC4CC(OC5CC(O)C(OC)C(C)O5)C(OC(C)=O)C(C)O4)C(C)C(=O)C3=C(O)C2=C(O)C1OC1CC(OC2CC(OC3CC(C)(O)C(OC(=O)C(C)C)C(C)O3)C(O)C(C)O2)C(O)C(C)O1 (stereo unspecified)	< 0.01 µM	–	< 0.01 µM	> 100 µM	< 0.01 µM	< 0.01 µM	–	< 0.01 µM	–	< 0.01 µM	< 0.01 µM	< 0.01 µM	–
C/C=C1/CN2CCC3(O)c4ccccc4N4C=C(C(=O)OC)C1CC2C43O (stereo unspecified)	–	> 100 µM	> 100 µM	> 100 µM	> 100 µM	–	> 100 µM	> 100 µM	> 100 µM	> 100 µM	> 100 µM	–	–
NC(=O)c1coc(C2OC(CO)C(O)C2O)n1 (stereo unspecified)	> 100 µM	> 100 µM	> 100 µM	> 100 µM	> 100 µM	> 100 µM	> 100 µM	–	–	–	–	–	–
